# Source: patent US9511052B2, “Mineralocorticoid receptor antagonists” (Merck Sharp & Dohme Corp., priority 2012, dated 2016)
# Target: T1, full-length human Mineralocorticoid Receptor (MR) (Homo sapiens, UniProt P08235)
# T1 construct: host or cells: PathHunter CHO-K1 MR cells
# T1 sequence (P08235 1-984): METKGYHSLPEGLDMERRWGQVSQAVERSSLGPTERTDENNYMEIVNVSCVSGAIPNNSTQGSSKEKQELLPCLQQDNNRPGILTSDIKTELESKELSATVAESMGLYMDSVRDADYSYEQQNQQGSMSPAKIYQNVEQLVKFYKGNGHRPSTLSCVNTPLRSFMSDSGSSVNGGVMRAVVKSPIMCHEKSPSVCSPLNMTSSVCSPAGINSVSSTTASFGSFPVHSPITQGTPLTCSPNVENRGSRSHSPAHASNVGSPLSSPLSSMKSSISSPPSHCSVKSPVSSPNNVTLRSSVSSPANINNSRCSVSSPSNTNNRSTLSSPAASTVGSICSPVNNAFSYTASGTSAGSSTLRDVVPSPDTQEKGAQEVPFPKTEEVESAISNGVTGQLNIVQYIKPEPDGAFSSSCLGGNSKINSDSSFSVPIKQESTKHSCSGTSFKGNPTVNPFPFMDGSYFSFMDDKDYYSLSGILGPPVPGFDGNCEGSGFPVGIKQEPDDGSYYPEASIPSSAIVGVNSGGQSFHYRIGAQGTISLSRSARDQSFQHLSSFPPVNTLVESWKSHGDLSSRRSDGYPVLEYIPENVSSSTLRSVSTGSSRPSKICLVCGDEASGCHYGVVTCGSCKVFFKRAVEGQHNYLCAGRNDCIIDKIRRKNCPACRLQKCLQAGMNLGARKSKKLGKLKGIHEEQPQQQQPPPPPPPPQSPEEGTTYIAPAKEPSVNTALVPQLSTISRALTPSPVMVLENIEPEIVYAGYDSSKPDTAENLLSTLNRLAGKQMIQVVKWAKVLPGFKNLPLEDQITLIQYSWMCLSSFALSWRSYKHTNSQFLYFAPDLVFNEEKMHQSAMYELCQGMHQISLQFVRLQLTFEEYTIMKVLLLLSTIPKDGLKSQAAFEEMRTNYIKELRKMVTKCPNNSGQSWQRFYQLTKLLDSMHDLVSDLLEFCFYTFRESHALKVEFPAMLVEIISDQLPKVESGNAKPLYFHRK
# Test: human MR NH Pro assay (PathHunter Protein:Protein interaction assay), MR antagonism
# Type: cell-based
# Conditions: IP = inflection point of the dose-response curve; CHO-K1 cells overexpressing human MR, aldosterone about 0.3 nM to about 1 nM, 6 hours at 37° C.
# Description: The activity of the compounds of the present invention regarding mineralocorticoid receptor antagonism can be evaluated using the following assay.
# Assessment of MR Potency in HMR NH Pro Assay
# The human MR NH Pro assay is a commercially available PathHunter™ Protein:Protein interaction assay (DiscoveRx; http://www.discoverx.com/nhrs/prod-nhrs.php) that measures the ability of compounds to antagonize full-length human Mineralocorticoid Receptor (MR) binding to a coactivator peptide.
# Stock solution was prepared at 10 μM in DMSO and stored at −20° C. for assay, dilute in assay media to 1.8 or 6 nM (6× of final concentration=about 0.3 nM to about 1.0 nM)
# 5. Cell line: PathHunter CHO-K1 MR cells Cat #93-0456C2, Lot No: 09B0913, from operation liquid nitrogen stock.
# 6. Control Antagonist: Spironolactone: Sigma #S-3378 and Eplerenone Sigma #107724-20-9 (10 mM stock concentration also prepared in DMSO and stored at −20° C.).
# 1. Cells are grown in F12+FBS+Hygromycin+pen/strep+Genetin
# 2. Cells are collected with 0.05% trypsin and the cell suspension is spun and resuspended in a volume of F12+1.5% CD-FBS and counted.
# 3. The cells concentration was adjusted to 4×10^5 cells/mL.
# 4. Cells were (25 μL/well) added to the wells of a 384 well plate.
# 5. The plate was then incubated at 37° C. over night in a humidified incubator with 5% CO2.
# 6. Test compounds were titrated starting at 4.4 mM, 10-point titration in 1:3 dilution.
# Protocol for 384 well plate format: 6 hr treatment:
# 1. 10K exponentially growing cells/well (25 μL) were resuspended in assay media and plated into each well using the Multidrop (Thermo Electron) (use white wall, clear bottom assay plates (Costar #3570) and incubated overnight at 37° C., 5% CO2.
# 2. 0.25 μL 120× test compound (final DMSO concentration should be <1%) was added to each well n=2, 10 point titrations starting at 36.7 μM final concentration.
# 4. 5 μL of assay media was added to all wells in column 23 and 24.
# 5. Cells were then incubated for 6 hrs at 37° C., 5% CO2.
# 6. 15 μL 3× DiscoveRx detection reagent was then added to each well.
# 7. Plates were incubated for 1 hour at room temperature in the dark.
# 8. Plates were read on Envision (PerkinElmer) luminesence plate reader and analyzed using ADA.
row,IC50 [nM],SMILES
1,733,"CCC(c1ccc(Br)cc1)(C(C)O)n1ncc2c(NS(C)(=O)=O)cccc21 (single isomer, unassigned) [Compound 3, N-(1-(3-(4-bromophenyl)-2-hydroxypentan-3-yl)-1H-indazol-4-yl) methanesulfonamide]"
2,728,"CCC(c1ccc(Br)cc1)(C(C)O)n1ncc2c(NS(C)(=O)=O)cccc21 (single isomer, unassigned) [Compound 4, N-(1-(3-(4-bromophenyl)-2-hydroxypentan-3-yl)-1H-indazol-4-yl) methanesulfonamide]"
3,8,"CCC(O)C(CC)(c1ccc(Br)cc1)n1ncc2c(NS(C)(=O)=O)cccc21 (single isomer, unassigned) [Compound 5, N-(1-(3-(4-bromophenyl)-4-hydroxyhexan-3-yl)-1H-indazol-4-yl)methanesulfonamide]"
4,3,"CCC(O)C(CC)(c1ccc(Br)cc1)n1ncc2c(NS(C)(=O)=O)cccc21 (single isomer, unassigned) [Compound 6, N-(1-(3-(4-bromophenyl)-4-hydroxyhexan-3-yl)-1H-indazol-4-yl)methanesulfonamide]"
5,1990,"CCC(O)C(CC)(c1ccc(Br)cc1)n1ncc2c(NS(C)(=O)=O)cccc21 (single isomer, unassigned) [Compound 7, N-(1-(3-(4-bromophenyl)-4-hydroxyhexan-3-yl)-1H-indazol-4-yl)methanesulfonamide]"
6,1190,"CCC(O)C(CC)(c1ccc(Br)cc1)n1ncc2c(NS(C)(=O)=O)cccc21 (single isomer, unassigned) [Compound 8, N-(1-(3-(4-bromophenyl)-4-hydroxyhexan-3-yl)-1H-indazol-4-yl)methanesulfonamide]"

# More lines, now with the values behind:
row,SMILES,IC50 [nM]
1,"CCC(C(N)=O)(c1ccc(S(F)(F)(F)(F)F)cc1)n1ncc2c(NS(C)(=O)=O)cccc21 (racemic) [Compound 27, 2-{4-[(methylsulfonyl)amino]-1H-indazol-1-yl}-2-[4-(pentafluoro-λ^6-sulfanyl)phenyl]butanamide]",3610
2,"CCC(c1ccc(Br)cc1)(C(C)O)n1ncc2c(NS(C)(=O)=O)cccc21 (single isomer, unassigned) [Compound 1, N-(1-(3-(4-bromophenyl)-2-hydroxypentan-3-yl)-1H-indazol-4-yl) methanesulfonamide]",10
3,"CCC(O)C(CC)(c1ccc(C(F)(F)F)cc1)n1ncc2c(NS(C)(=O)=O)cccc21 (single isomer, unassigned) [Compound 10, N-(1-(4-hydroxy-3-(4-(trifluoromethyl)phenyl)hexan-3-yl)-1H-indazol-4-yl)methanesulfonamide]",5
4,"CCC(CO)(c1ccc(C(F)(F)F)cc1)n1ncc2c(NS(C)(=O)=O)cccc21 (single isomer, unassigned) [Compound 11, N-(1-(1-hydroxy-2-(4-(trifluoromethyl)phenyl)butan-2-yl)-1H-indazol-4-yl)methanesulfonamide]",60
5,"CCC(C(N)=O)(c1ccc(C(F)(F)F)cc1)n1ncc2c(NS(C)(=O)=O)cccc21 (single isomer, unassigned) [Compound 12, 2-(4-(methylsulfonamido)-1H-indazol-1-yl)-2-(4-(trifluoromethyl)phenyl) butanamide]",139
6,"CCC(c1ccc(C#N)cc1)(C(C)O)n1ncc2c(NS(C)(=O)=O)cccc21 (single isomer, unassigned) [Compound 13, N-(1-(-3-(4-cyanophenyl)-2-hydroxypentan-3-yl)-1H-indazol-4-yl)methanesulfonamide]",225
7,"CCC(O)C(CC)(c1ccc(C#N)cc1)n1ncc2c(NS(C)(=O)=O)cccc21 (single isomer, unassigned) [Compound 15, N-(1-(3-(4-cyanophenyl)-4-hydroxyhexan-3-yl)-1H-indazol-4-yl)methanesulfonamide]",56
8,"CCC(O)C(CC)(c1ccc(C#N)cc1)n1ncc2c(NS(C)(=O)=O)cccc21 (single isomer, unassigned) [Compound 16, N-(1-(3-(4-cyanophenyl)-4-hydroxyhexan-3-yl)-1H-indazol-4-yl)methanesulfonamide]",48
